Source: US12409172B2, “Dosage regimen” (UNION therapeutics A/S, priority 2023, dated 2025)

Tests used:
[1] = tested on: chronic oxazolone-induced ear skin inflammation; conditions: 10 and 30 mg/kg doses; cited from earlier work
[2] = tested on: adults with moderate-to-severe plaque-type psoriasis; test: Phase 2b dose-ranging study in psoriasis (Example 3): treatment-emergent adverse events and discontinuations; assay type: in vivo, human
Excerpt: • Percentage change in Psoriasis […] and Severity Index (PASI) score from Baseline at Week 16. Key Secondary Endpoints • Patients achieving 75% reduction in PASI (PASI75) response at Week 16. • Patients achieving a score of Clear (0) or Almost Clear (1) and an at least 2-point improvement in Investigator Global Assessment (IGA) at Week 16. […] Safety Endpoints: • The occurrence, severity, and seriousness of treatment-emergent adverse events (TEAEs) reported over the 16-week Treatment Period and the 4-week Follow-up Period. • Changes from Baseline in physical examination; vital sign measurements (body temperature, respiration rate, heart rate, and systolic and diastolic blood pressure measurements); and body weight over the 16-week Treatment Period and the 4-week Follow-up Period. • Changes from Baseline in electrocardiogram (ECG) findings over the 16-week Treatment Period and the 4-week Follow-up Period. • Changes from Baseline in safety laboratory values (haematology, serum chemistry, and urinalysis) over the 16-week Treatment Period and the 4-week Follow-up Period. • Hospital Anxiety and Depression Scale at each visit except Week 2. • Columbia-Suicide Severity Rating Scale (C-SSRS) at each visit except Weeks 1 and 2. Exploratory Endpoints: • Change from Baseline in Physician's Global Assessment of Fingernails (PGA-F) at Week 16. • Change in Scalp-Specific Investigator Global Assessment (ss-IGA) from Baseline at Week 16 in the subgroup of patients with Baseline score of at least 2 (mild scalp psoriasis). • Change from Baseline of scalp itch Numeric Rating Scale (NRS) at Week 16 in the subgroup of patients with Baseline score of at least 4 on the 11-point NRS. • Change from Baseline in joint pain NRS at Week 16 in patients with psoriatic arthritis (PsA) and a Baseline joint pain score of at least 4. • Change in cardiovascular risk factors at Week 16. The following parameters will be collected: weight, body mass index, waist and hip circumferences, blood pressure, fasting serum glucose, triglycerides, cholesterol (total and high-density lipoprotein/low-density lipoprotein fractions), and C-reactive protein. • Change from Baseline in skin biomarkers at Week 16 collected via tape stripping and analysed using proteomic methods. • Plasma levels of the drug and its metabolites at scheduled visits. Study Design
At Baseline and each visit from Week 4 onwards, PASI, BSA, IGA, and PSS were assessed. Quality of life was assessed by administration of DLQI at Baseline and at Weeks 16 and 20 visits. Additional efficacy parameters include: an ss-IGA, a Physician Global Assessment of fingernail psoriasis (PGA-F), and patient's joint pain NRS for those with a diagnosis of PsA. These parameters were assessed at Baseline and Weeks 16 and 20. Safety evaluations include adverse events (Aes), laboratory and vital sign assessments, physical examinations, as well as mood change evaluation by patient (Hospital Anxiety and Depression Scale) and suicidal ideation evaluation by Investigator (C-SSRS). A panel of cardiovascular risk factors were assessed at Baseline and Week 16.

## O=C(Cc1c(Cl)c[n+]([O-])cc1Cl)c1ccc(OC(F)F)c2c1OC1(CCS(=O)(=O)CC1)O2 [orismilast, 2-(3,5-dichloro-1-oxidopyridin-1-ium-4-yl)-1-[7-(difluoromethoxy)-1′,1′-dioxospiro[1,3-benzodioxole-2,4′-thiane]-4-yl]ethanone]
[1]
  ear thickness and inflammation markers: significantly reduced
[2]; 20 mg BID
  Abdominal pain upper, adverse event leading to treatment discontinuation: 2.1%
  Abdominal pain upper, treatment-emergent adverse event: 2.1%
  Diarrhea (incl. loose stool), adverse event leading to treatment discontinuation: 10.4%
  Diarrhea (incl. loose stool), treatment-emergent adverse event: 37.5%
  Dizziness, adverse event leading to treatment discontinuation: 2.1%
  Dizziness, treatment-emergent adverse event: 6.3%
  Headache, adverse event leading to treatment discontinuation: 2.1%
  Headache, treatment-emergent adverse event: 12.5%
  Nausea, adverse event leading to treatment discontinuation: 4.2%
  Nausea, treatment-emergent adverse event: 22.9%
  Vomiting, adverse event leading to treatment discontinuation: 0%
  Vomiting, treatment-emergent adverse event: 6.3%
  discontinuations due to adverse events: 21%
[2]; 30 mg BID
  Abdominal pain upper, adverse event leading to treatment discontinuation: 2.0%
  Abdominal pain upper, treatment-emergent adverse event: 6.0%
  Diarrhea (incl. loose stool), adverse event leading to treatment discontinuation: 6.0%
  Diarrhea (incl. loose stool), treatment-emergent adverse event: 48.0%
  Dizziness, adverse event leading to treatment discontinuation: 2.0%
  Dizziness, treatment-emergent adverse event: 14.0%
  Headache, adverse event leading to treatment discontinuation: 4.0%
  Headache, treatment-emergent adverse event: 26.6%
  Nausea, adverse event leading to treatment discontinuation: 8.0%
  Nausea, treatment-emergent adverse event: 38.0%
  Vomiting, adverse event leading to treatment discontinuation: 2.0%
  Vomiting, treatment-emergent adverse event: 8.0%
  discontinuations due to adverse events: 20%
[2]; 40 mg BID
  Abdominal pain upper, adverse event leading to treatment discontinuation: 7.5%
  Abdominal pain upper, treatment-emergent adverse event: 11.3%
  Diarrhea (incl. loose stool), adverse event leading to treatment discontinuation: 20.8%
  Diarrhea (incl. loose stool), treatment-emergent adverse event: 45.3%
  Dizziness, adverse event leading to treatment discontinuation: 1.9%
  Dizziness, treatment-emergent adverse event: 15.1%
  Headache, adverse event leading to treatment discontinuation: 3.8%
  Headache, treatment-emergent adverse event: 20.8%
  Nausea, adverse event leading to treatment discontinuation: 11.3%
  Nausea, treatment-emergent adverse event: 41.5%
  Vomiting, adverse event leading to treatment discontinuation: 5.7%
  Vomiting, treatment-emergent adverse event: 13.2%
